Measured values taken from patent US7989618B2, “Linezolid crystalline hydrate form and linezolid salts” (DiPharma Francis s.r.l., priority 2007, dated 2011).

Assays:
[1] = electrostatic character of the crystals; type: physicochemical; settings: contrary to the known crystalline Form II
[2] = as stated in US 2006/0142283 / WO 2005/035530; cited from earlier work
[3] = hygroscopicity of the isolated solid; type: physicochemical; settings: amorphous solid

For CC(=O)NC[C@H]1CN(c2ccc(N3CCOCC3)c(F)c2)C(=O)O1 [linezolid hemihydrate, Linezolid Hemihydrate], the “electrostatic character (in words)” value [1] was “not electrostatic”.

For CC(=O)NC[C@H]1CN(c2ccc(N3CCOCC3)c(F)c2)C(=O)O1 [Form III, Linezolid Form III], the “electrostatic character and compactness compared with Form II (in words)” value [2] is listed as “more compact and less electrostatic than the Form II”.

For Linezolid Sulfate, the “hygroscopicity (in words)” value [3] was “hygroscopic”.
